Read-outs that look alike come from different tables or passages of the source. Marks after values point to notes of the source that are not given here. Ends that are not written are not given here.
Key:
[1] = system: Candida parapsilosis CBS 604; assay: Checkerboard microdilution, rNFAP2 with FLC, RPMI 1640; assay type: cell-based; conditions: rNFAP2 combined with FLC; RPMI 1640, 10^3 cells ml^−1, 48 h, 35°C
Protocol: (§1) Antifungal synergism between rNFAP2 and FLC were investigated using the checkerboard microdilution method (Eliopoulos and Moellering, [1996]) in RPMI 1640 medium applying the drug stock preparation method and cultivation conditions described in CLSI-M27A3 document (Clinical and Laboratory Standards Institute, [2008]). […] The fractional inhibitory concentration index (FICI) as a measure of synergism and antagonism was calculated (Johnson et al., [2004]). Synergism was defined as FICI≤0.5, indifference as 0.5 < FICI ≤ 4 and antagonism was defined when FICI > 4 (Odds, [2003]).
(§2) LCM plates were incubated at 30°C, while RPMI 1640 plates at 35°C for 48 h without shaking, then the absorbance (OD620) was measured with a microtiter plate reader (SPECTROstar Nano, BMG Labtech, Ortenberg, Germany) after resuspension of the cultures with pipette. The absorbance of the untreated control cultures was referred to 100% growth in each case.
(§3) All susceptibility tests were repeated at least two times in three replicates.

[2] = system: Candida krusei CBS 573; assay: as above; assay type: cell-based; conditions: rNFAP2 combined with FLC; RPMI 1640, 10^3 cells ml^−1, 48 h, 35°C
Protocol: as §1, §2, §3

[3] = system: Candida albicans ATCC 10231; assay: as above; assay type: cell-based; conditions: rNFAP2 combined with FLC; RPMI 1640, 10^3 cells ml^−1, 48 h, 35°C
Protocol: as §1, §2, §3

[4] = system: Saccharomyces cerevisiae SZMC 0644; conditions: LCM, 10^5 cells ml^−1, 48 h, 30°C; MIC = growth ≤ 5% (OD620)
Protocol: (§4) Susceptibility tests were performed in low ionic strength broth medium (LCM: 0.5% glucose, 0.25% yeast extract, 0.0125% peptone (w/v)) and in RPMI 1640 medium (Sigma-Aldrich, St Louis, MO, USA) supplemented with 0.03% (w/v) L-glutamine and buffered to pH 7.0 with 0.165 M 4-morpholinopropanesulfonic acid (Sigma-Aldrich, St Louis, MO, USA).
(§5) Antifungal susceptibility tests were performed with nNFAP2, rNFAP2, and sNFAP2 and its peptide fragments in LCM medium against yeast isolates (10^5 cells ml^−1) according to the broth microdilution method described by Tóth et al. ([2016]). Final drug concentration ranged from 25 to 0.098 μg ml^−1 for rNFAP2 and sNFAP2, and from 100 to 6.25 μg ml^−1 for the synthetic peptide fragments. The rNFAP2 was tested against nine yeast isolates, while the sNFAP2 and the synthetic peptide fragments against C. albicans ATCC 10231, C. krusei CBS 573, C. parapsilosis CBS 604, and S. cerevisiae SZMC 0644.
as §2, §3

[5] = system: Candida parapsilosis CBS 604; conditions: LCM, 10^5 cells ml^−1, 48 h, 30°C; MIC = growth ≤ 5% (OD620)
Protocol: as §4, §5, §2, §3

[6] = system: Candida krusei CBS 573; conditions: LCM, 10^5 cells ml^−1, 48 h, 30°C; MIC = growth ≤ 5% (OD620)
Protocol: as §4, §5, §2, §3

[7] = system: Candida albicans ATCC 10231; conditions: LCM, 10^5 cells ml^−1, 48 h, 30°C; MIC = growth ≤ 5% (OD620)
Protocol: as §4, §5, §2, §3

[8] = system: Candida lusitaniae CBS 6936; assay: MIC, CLSI-M27A3 broth microdilution in RPMI 1640; assay type: cell-based; conditions: RPMI 1640 pH 7.0, 10^3 cells ml^−1, 48 h, 35°C; MIC = growth ≤ 5%
Protocol: as §4
(§6) The CLSI-M27A3 broth microdilution method (Clinical and Laboratory Standards Institute, [2008]) was applied to determinate the minimal inhibitory concentrations (MIC) of FLC (Sigma-Aldrich, St Louis, MO, USA) and rNFAP2 against the Candida isolates (10^3 cells ml^−1) under clinically approved test conditions. For this experiment, the rNFAP2 stock was prepared in bidistilled water, and FLC in dimethyl sulfoxide (DMSO). The investigated concentration range was 64–0.0625 μg ml^−1 for FCL and 100–0.39 μg ml^−1 for rNFAP2.
as §2, §3

[9] = system: Candida parapsilosis CBS 604; assay: MIC, CLSI-M27A3 broth microdilution in RPMI 1640; assay type: cell-based
Protocol: as §4, §6, §2, §3

[10] = system: Candida tropicalis CBS 94; assay: MIC, CLSI-M27A3 broth microdilution in RPMI 1640; assay type: cell-based; conditions: RPMI 1640 pH 7.0, 10^3 cells ml^−1, 48 h, 35°C; MIC = growth ≤ 5%
Protocol: as §4, §6, §2, §3

[11] = system: Candida glabrata CBS 138; assay: MIC, CLSI-M27A3 broth microdilution in RPMI 1640; assay type: cell-based; conditions: RPMI 1640 pH 7.0, 10^3 cells ml^−1, 48 h, 35°C; MIC = growth ≤ 5%
Protocol: as §4, §6, §2, §3

[12] = system: Candida albicans ATCC 10231; assay: MIC, CLSI-M27A3 broth microdilution in RPMI 1640; assay type: cell-based
Protocol: as §4, §6, §2, §3

[13] = system: Candida guilliermondii CBS 566; assay: MIC, CLSI-M27A3 broth microdilution in RPMI 1640; assay type: cell-based; conditions: RPMI 1640 pH 7.0, 10^3 cells ml^−1, 48 h, 35°C; MIC = growth ≤ 5%
Protocol: as §4, §6, §2, §3

[14] = Thermal unfolding followed by ECD spectroscopy; assay type: physicochemical
Protocol: ECD spectroscopic measurements were performed using a Jasco-J815 spectropolarimeter (JASCO Corporation, Tokyo, Japan), in the far-UV range (185–260 nm). Protein samples were dissolved in pure H2O in approximately 0.1 mg ml^−1 concentration and measured in a 0.1 cm pathlength quartz cuvette. First, ECD spectra of samples were recorded at 25°C with a scan speed of […]. […] The system was allowed to equilibrate for 1 min before measurements were taken at each temperature point.
The obtained melting curves were fitted with an inverse sigmoidal function of which inflection point designated the melting temperature (Tm) of the native protein structure.
ECD spectra were also recorded at 95°C, the final temperature of the thermal unfolding experiments, then samples were allowed to cool and measured again after 5 min of equilibration at 25°C. The reported spectra are accumulations of 10 scans, from which the similarly recorded, corresponding solvent spectrum was subtracted. Data are given as molar ellipticities. Accurate protein sample concentrations for the corrections of ECD spectra were determined using analytical RP-HPLC.

[15] = system: Schizosaccharomyces pombe SZMC 0142; assay: MIC, broth microdilution in LCM; assay type: cell-based; conditions: 10^5 cells ml^−1, 48 h, 30°C, MIC = growth ≤ 5% (OD620)
Protocol: as §4, §5, §2, §3

[16] = system: Candida lusitaniae CBS 6936; assay: MIC, broth microdilution in LCM; assay type: cell-based; conditions: 10^5 cells ml^−1, 48 h, 30°C, MIC = growth ≤ 5% (OD620)
Protocol: as §4, §5, §2, §3

[17] = system: Candida tropicalis CBS 94; assay: MIC, broth microdilution in LCM; assay type: cell-based; conditions: 10^5 cells ml^−1, 48 h, 30°C, MIC = growth ≤ 5% (OD620)
Protocol: as §4, §5, §2, §3

[18] = system: Candida glabrata CBS 138; assay: MIC, broth microdilution in LCM; assay type: cell-based; conditions: 10^5 cells ml^−1, 48 h, 30°C, MIC = growth ≤ 5% (OD620)
Protocol: as §4, §5, §2, §3

[19] = system: Candida guilliermondii CBS 566; assay: MIC, broth microdilution in LCM; assay type: cell-based; conditions: 10^5 cells ml^−1, 48 h, 30°C, MIC = growth ≤ 5% (OD620)
Protocol: as §4, §5, §2, §3

[20] = system: Candida krusei CBS 573; assay: MIC, CLSI-M27A3 broth microdilution in RPMI 1640; assay type: cell-based; conditions: Pichia kudriavzevii, CBS573, 48 h, pH 7; read-out: MIC of the drug alone (a)
Protocol: as §4, §6, §2, §3

[21] = RPMI 1640 pH 7.0, 10^3 cells ml^−1, 48 h, 35°C, MIC = growth ≤ 5%

IATSPYYACNCPNNCKHKKGSGCKYHSGPSDKSKVISGKCEWQGGQLNCIAT (disulfide (positions not given here)) [rNFAP2, recombinant NFAP2 produced by P. chrysogenum nfap2]
MIC of the drug in combination (c) [1]: 6.25 µg/mL | MIC of the drug in combination (c) [2]: 6.25 µg/mL | MIC of the drug in combination (c) [3]: 6.25 µg/mL | MIC [4]: 3.125 µg/mL | MIC [5]: 1.56 µg/mL | MIC [6]: 12.5 µg/mL | MIC [7]: 6.25 µg/mL | MIC of the drug alone (a) [8]: >100 µg/mL | MIC of the drug alone (a) [9, 21]: 100 µg/mL | MIC of the drug alone (a) [10]: >100 µg/mL | MIC of the drug alone (a) [11]: 12.5 µg/mL | MIC of the drug alone (a) [12, 21]: 200^* μg ml^−1 | MIC of the drug alone (a) [13]: 3.125 µg/mL | thermal denaturation reversibility ([14]; ECD at 95°C, then re-measured after cooling, 5 min at 25°C): reversible | Tm (melting temperature of the native protein structure) ([14]; ECD at 228 nm, 25 to 95°C at 1°C min^−1, approx. 0.1 mg ml^−1 in H2O, inflection of sigmoidal fit): 75.79 °C | native fold remains intact up to ([14]; thermal unfolding followed by ECD): approximately 70 °C | MIC [15]: 1.56 µg/mL | MIC [16]: 3.125 µg/mL | MIC [17]: 1.56 µg/mL | MIC [18]: 1.56 µg/mL | MIC [19]: 1.56 µg/mL

OC(Cn1cncn1)(Cn1cncn1)c1ccc(F)cc1F [FLC, fluconazole, reference compound]
MIC of the drug in combination (c) [1]: 1 µg/mL | MIC of the drug in combination (c) [3]: 0.25 µg/mL | MIC ([9]; Lodderomyces parapsilosis, CBS604, 48 h, pH 7, read-out: MIC of the drug alone (a)): 8 µg/mL | MIC [20]: 64 µg/mL | MIC ([12]; Candida albicans, ATCC10231, 48 h, pH 7, read-out: MIC of the drug alone (a)): 1 µg/mL

Source: paper PMC5845869 (Frontiers in Microbiology, 2018)
